According to PubChem BioAssay (NCI):
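In this assay, cells in 96-well plates receive the compound at five concentrations for 48 hours. Endpoints are linearly interpolated between the surrounding concentrations. Abbreviation: GI50, concentration required for 50% inhibition of growth. TGI: concentration producing complete growth inhibition.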

Key:
Assay in all cases: inhibition of tumour cell growth, NCI panel, 48 h
A498 renal = test system: A498 renal
ACHN renal = test system: ACHN renal
COLO 205 colon = test system: COLO 205 colon
HCT-116 colon = test system: HCT-116 colon
HOP-62 NSCLC = test system: HOP-62 NSCLC
HT29 colon = test system: HT29 colon
K-562 leukemia = test system: K-562 leukemia
OVCAR-4 ovarian = test system: OVCAR-4 ovarian
OVCAR-8 ovarian = test system: OVCAR-8 ovarian
RXF 393 renal = test system: RXF 393 renal
SF-295 CNS = test system: SF-295 CNS
SK-MEL-2 melanoma = test system: SK-MEL-2 melanoma
SK-MEL-5 melanoma = test system: SK-MEL-5 melanoma
MDA-MB-231 breast = test system: MDA-MB-231 breast
MDA-N = test system: MDA-N
PC-3 prostate = test system: PC-3 prostate
UACC-62 melanoma = test system: UACC-62 melanoma

Compound	TGI (A498 renal) [µM]	TGI (ACHN renal) [µM]	TGI (COLO 205 colon) [µM]	TGI (HCT-116 colon) [µM]	TGI (HOP-62 NSCLC) [µM]	TGI (HT29 colon) [µM]	TGI (K-562 leukemia) [µM]	TGI (OVCAR-4 ovarian) [µM]	TGI (OVCAR-8 ovarian) [µM]	TGI (RXF 393 renal) [µM]	TGI (SF-295 CNS) [µM]	TGI (SK-MEL-2 melanoma) [µM]	TGI (SK-MEL-5 melanoma) [µM]	TGI (MDA-MB-231 breast) [µM]	TGI (MDA-N) [µM]	TGI (PC-3 prostate) [µM]	TGI (UACC-62 melanoma) [µM]	GI50 (HCT-116 colon) [µM]	GI50 (HOP-62 NSCLC) [µM]
CC(C)C12C=CC(C)(CC1)n1c(=O)c3cc4ccccc4cc3c(=O)n12 (centres undefined)	79.1	> 100	> 100	> 100	> 100	> 100	> 100	> 100	> 100	> 100	> 100	> 100	> 100						
O=C1[C@@H]2C[C@@H](O)CN2C(=O)c2ccccc2N1CCCO	> 100	> 100		> 100	> 100	> 100	> 100		> 100		> 100	> 100		> 100	> 100	> 100	> 100		
C/C(=N\NC(=S)NC(C)(C)C)c1ccccn1	> 39.6		> 100	> 100	> 100	> 76.6		> 100	> 36.6	23.2	> 100	> 100	> 40	> 100	> 100		25.7		
CC(C)(C)[Si](C)(C)OCCOCn1cc(F)c(=O)[nH]c1=O	> 100	> 100	> 100	> 100	> 100	> 100	> 100	> 100	> 100	> 100	> 100	> 100	> 100		> 100	> 100	> 100		
O=C(Cc1ccccc1)NNc1nc(NNC(=O)c2ccncc2)nc(Nc2cccc(Cl)c2)n1			> 10		> 10	> 10	> 10	> 10	> 10				> 10	> 10	> 10		> 10		
CC(C)(C)OC(=O)N(CCNS(=O)(=O)c1cccc2cnccc12)CCC(=O)ON1C(=O)CCC1=O		> 100	> 100	> 100	> 100	> 100	> 100	> 100	> 100	> 100	> 100	> 100	> 100	> 100		> 100	> 100		
O=c1oc(-c2ccccc2)c(-c2ccccc2)n1-c1ccc(Br)cc1	> 100	> 100	> 100	> 100	> 100	> 100		96.4	> 100	> 100	> 100	> 100	> 100	> 100		> 100	> 100		
O=C(CNC(=O)OCc1ccccc1)NCCCCC(NC(=O)OCc1ccccc1)C(=O)NC(CCCCNC(=O)CNC(=O)OCc1ccccc1)C(=O)OCc1ccccc1 (centres undefined)	> 62.5	> 62.5		> 62.5	> 62.5	> 62.5	> 62.5	> 62.5	> 62.5			> 62.5	> 62.5	> 62.5		> 62.5	> 62.5		
Cc1ccc(-c2c(C#N)c(N)nc3c2CCS(=O)(=O)c2ccccc2-3)cc1	> 100	> 100	> 100	> 100		> 100	> 100	> 100	> 100			> 100	> 100	> 100	> 100	> 100	> 100		
CC(C)C/C=C/C1=NN(c2cccc(S(=O)(=O)O)c2)C2(C1)SCC(=O)N2c1nc2ccccc2s1 (centres undefined)	88.2	> 100	> 100	> 100		> 100	> 100	> 100	> 100	> 100		> 100	> 100	> 100		> 100	> 100		
CC(C)C1COC(c2cccc(C3=N[C@@H](C(C)C)CO3)n2)=N1 (some centres undefined)	> 100	> 100	> 100	> 100	> 100	> 100	> 100	> 100		> 100	> 100	> 100	> 100						
CC12c3c4cc(Br)cc3Oc3cc(Br)cc(c31)Oc1cc(Br)cc(c12)O4		> 100	> 100	> 100	> 100	> 100	> 100	> 100	> 100		> 100	67.8	84.5	59.3	> 100	55.3	> 100		
O=C(/C=C/c1ccc(Cl)cc1)c1cccs1	56	37.5	37.9	33.8	89.8	> 100	> 100		56.2		38.5	> 100	32.5	39.9	31.6	32.8	49.2		
O=C1CC(C(=O)N2CCCCC2)n2c(=O)n(-c3ccccc3)c(=O)n2C1 (centres undefined)		> 100	> 100	> 100	> 100	> 100			> 100	> 100	> 100		> 100	> 100	> 100	> 100	> 100		
CCOc1cc2c(cc1O)/C(=N/NS(=O)(=O)c1ccc(C)cc1)C[C@@H]1[C@@H]2CC[C@]2(C)[C@@H](O)CC[C@@H]12	> 100	81.2	17.4	> 100	> 100	> 100	> 100	> 100	> 100	> 100	> 100	> 100	> 100	> 100		> 100		6.67	5.14
